{
  "source": "paper PMC5356695",
  "about": "“A phase 1 study of oral ridaforolimus in pediatric patients with advanced solid tumors” (Oncotarget, 2016)",
  "origin": "cited, not measured here",
  "key": {"[1]": {"system": "in vivo solid tumor models", "parameters": "method as in PMID 17635004", "details": "cited from earlier work"}, "[2]": {"system": "children with refractory solid tumors", "parameters": "method as in PMID 17947729", "details": "cited from earlier work"}, "[3]": {"system": "pediatric patients with advanced solid tumors", "parameters": "method as in PMID 27185573", "details": "dalotuzumab alone; cited from earlier work"}, "[4]": {"system": "children with recurrent or refractory solid tumors", "parameters": "method as in PMID 21690471", "details": "highest dose tested 150 mg/m^2, once weekly; cited from earlier work"}, "[5]": {"system": "neuroblastoma and high-grade glioma", "parameters": "method as in PMID 22033322", "details": "single-agent therapy; cited from earlier work"}},
  "data": [
    {"compound": "CO[C@H]1C[C@@H]2CC[C@@H](C)[C@@](O)(O2)C(=O)C(=O)N2CCCC[C@H]2C(=O)O[C@H]([C@H](C)C[C@@H]2CC[C@@H](O)[C@H](OC)C2)CC(=O)[C@H](C)/C=C(\\C)[C@@H](O)[C@@H](OC)C(=O)[C@H](C)C[C@H](C)/C=C/C=C/C=C/1C", "note": "[rapamycin]", "values": [
      {"measurement": "Models with significant differences in event-free survival distributions compared with controls", "setting": "[1]", "value": "27 of 36"}
    ]},
    {"compound": "CO[C@H]1C[C@@H]2CC[C@@H](C)[C@@](O)(O2)C(=O)C(=O)N2CCCC[C@H]2C(=O)O[C@H]([C@H](C)C[C@@H]2CC[C@@H](OCCO)[C@H](OC)C2)CC(=O)[C@H](C)/C=C(\\C)[C@@H](O)[C@@H](OC)C(=O)[C@H](C)C[C@H](C)/C=C/C=C/C=C/1C", "note": "[everolimus]", "values": [
      {"measurement": "RP2D", "setting": "[2]; children, oral", "value": 5, "unit": "mg/m^2"},
      {"measurement": "Patients with DLTs (grade 3 increased ALT, mucositis, diarrhea)", "setting": "[2]; highest dose of 6.5 mg/m^2, oral", "value": "3 of 3"}
    ]},
    {"compound": "dalotuzumab: anti-IGF1R monoclonal antibody", "values": [
      {"measurement": "Patients with confirmed partial response", "setting": "[3]", "value": "1 of 20"}
    ]},
    {"compound": "CO[C@H]1C[C@@H]2CC[C@@H](C)[C@@](O)(O2)C(=O)C(=O)N2CCCC[C@H]2C(=O)O[C@H]([C@H](C)C[C@@H]2CC[C@@H](OC(=O)C(C)(CO)CO)[C@H](OC)C2)CC(=O)[C@H](C)/C=C(\\C)[C@@H](O)[C@@H](OC)C(=O)[C@H](C)C[C@H](C)/C=C/C=C/C=C/1C", "note": "[temsirolimus]", "values": [
      {"measurement": "Patients with DLT (grade 3 anorexia)", "setting": "[4]", "value": "1 of 7"},
      {"measurement": "Disease stabilization", "setting": "[5]", "value": "Prolonged stable disease was observed"}
    ]}
  ]
}
